Measured values from article PMC11269933, “MAPK/ERK-PK(Ser11) pathway regulates divergent thermal metabolism of two congeneric oyster species” (iScience, 2024).

How the values were obtained:
CgPK [1] = biological target: T1, CgPK (Magallana gigas, UniProt Z9A5V8HWU5); assay: SPR (BIAcore T200, CM5 chip, anti-His capture), […] Langmuir fit; format: binding; details: PBS-P+ analyte buffer, running buffer HBS-EP+ pH 7.5, recombinant from E. coli
T1 construct: full-length CDS in pET-32a, 6xHis tags at N- and C-ends, expressed in E. coli; captured on CM5 chip by anti-His antibody

CgPK [2] = biological target: T1, CgPK; assay: as above; format: binding; details: PBS-P+ analyte buffer, running buffer HBS-EP+ pH 7.5, mimics dephosphorylation

Row | SMILES | Kd (CgPK [1]; ADP 1.25-10 uM) [nM] | Kd (CgPK [2]; ADP 1.25-10 uM) [nM] | Kd (CgPK [1]; PEP 100-1600 nM) [nM] | Kd (CgPK [2]; PEP 100-1600 nM) [nM]
1 | Nc1ncnc2c1ncn2[C@@H]1O[C@H](COP(=O)(O)OP(=O)(O)O)[C@@H](O)[C@H]1O [ADP] | 41.7 | 72.5 | – | –
2 | C=C(OP(=O)(O)O)C(=O)O [PEP] | – | – | 9.75 | 93.4
